# Reference: patent US20230235277A1, “3D Tissue Culture Materials and Processes for Producing Same” (INSPHERO AG, priority 2014, published 2023)
# “Also recorded” adds a separate entry of the source.
# How the values were obtained:
# human liver microtissues [1] = test: Long-term toxicity testing with human liver microtissues, 14 days treatment with 3 re-dosing; type: cell-based; conditions: 336 h, read-out: IC50 value of toxicity (cell death), dose-response
# [2] = tested on: 2D cultures of human hepatocytes; test: Toxicity in 2D cultures of human hepatocytes; type: cell-based; conditions: Hepatocyte, read-out: calculated IC50 value in 2D cultures of human hepatocytes
# human liver microtissues [3] = test: Inflammation-mediated toxicity testing with human liver microtissues in presence and absence of LPS; type: cell-based
# IL-6 secretion = test: Quantification of IL-6 secretion of liver microtissues by ELISA after LPS induction; type: cell-based, human; conditions: hepatosphere induced for 48 h with 10 µg/ml LPS
compound,measurement,setting,value
CC(=O)Nc1ccc(O)cc1 [acetaminophen],IC50,human liver microtissues [1],754 µM
O=C(O)Cc1ccccc1Nc1c(Cl)cccc1Cl [diclofenac],IC50,[2],331 µM
same,IC50,human liver microtissues [1],179 µM
N[C@@H]1[C@H]2CN(c3nc4c(cc3F)c(=O)c(C(=O)O)cn4-c3ccc(F)cc3F)C[C@@H]12 [trovafloxacin],IC50,"human liver microtissues [3]; absence of LPS (−LPS), read-out: IC50 (hepatotoxic threshold) of induced toxicity without LPS",220 µM
same,IC50,"human liver microtissues [3]; presence of LPS (+LPS), read-out: IC50 (hepatotoxic threshold) of induced toxicity in the presence of LPS",71 µM
lipopolysaccharide [LPS],increase in IL-6 secretion,IL-6 secretion,tenfold increase; also recorded: elevated levels of IL-6 secretion
